Experimental data from PMC11593225, “Polyphenolic Compounds Activate SERCA1a and Attenuate Methylglyoxal- and Palmitate-Induced Impairment in Pancreatic INS-1E Beta Cells” (Cells, 2024).
“Also recorded” adds a separate entry of the source. Where two headings read alike, the source gives them in different places. Each block holds one compound with its values, some of them ahead of it.

Experiments:
[1] = test system: SERCA2 isoform; parameters: method as in Kang et al. [43] and Nguyen et al. [44]; settings: ref Kang et al. [43] and Nguyen et al. [44]; cited from earlier work
[2] = biological target: T1, SERCA1a (Oryctolagus cuniculus, UniProt P04191); assay: SERCA1a ATPase activity, NADH-coupled enzyme assay in sarcoplasmic reticulum vesicles; assay type: biochemical, rabbit; settings: for IC50: read-out: IC50, reduction in SERCA1a activity; for Effect on SERCA1a activity: 2 min; for PAL SERCA1a Activity: in the presence of PAL; for Effect on SERCA1a activity in the presence of MGX: 3 mM MGX; for Effect on SERCA1a activity in the presence of PAL: 0.65 mM PAL; for Concentration from which the SERCA1a activating effect starts: concentration-dependent activation;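 as to all read-outs here: rabbit fast-twitch skeletal muscle SR vesicles with Ca2+ ionophore A23187, ATP hydrolysis rate followed as NADH absorbance loss at 340 nm, 37 °C, started by 10 µM CaCl2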
T1 construct: Sarcoplasmic reticulum (SR) vesicles were isolated from the fast-twitch skeletal muscle; from tissue; host or cells: rabbit fast-twitch skeletal muscle, sarcoplasmic reticulum vesicles
T1 sequence (P04191 1-994 isoform P04191-2): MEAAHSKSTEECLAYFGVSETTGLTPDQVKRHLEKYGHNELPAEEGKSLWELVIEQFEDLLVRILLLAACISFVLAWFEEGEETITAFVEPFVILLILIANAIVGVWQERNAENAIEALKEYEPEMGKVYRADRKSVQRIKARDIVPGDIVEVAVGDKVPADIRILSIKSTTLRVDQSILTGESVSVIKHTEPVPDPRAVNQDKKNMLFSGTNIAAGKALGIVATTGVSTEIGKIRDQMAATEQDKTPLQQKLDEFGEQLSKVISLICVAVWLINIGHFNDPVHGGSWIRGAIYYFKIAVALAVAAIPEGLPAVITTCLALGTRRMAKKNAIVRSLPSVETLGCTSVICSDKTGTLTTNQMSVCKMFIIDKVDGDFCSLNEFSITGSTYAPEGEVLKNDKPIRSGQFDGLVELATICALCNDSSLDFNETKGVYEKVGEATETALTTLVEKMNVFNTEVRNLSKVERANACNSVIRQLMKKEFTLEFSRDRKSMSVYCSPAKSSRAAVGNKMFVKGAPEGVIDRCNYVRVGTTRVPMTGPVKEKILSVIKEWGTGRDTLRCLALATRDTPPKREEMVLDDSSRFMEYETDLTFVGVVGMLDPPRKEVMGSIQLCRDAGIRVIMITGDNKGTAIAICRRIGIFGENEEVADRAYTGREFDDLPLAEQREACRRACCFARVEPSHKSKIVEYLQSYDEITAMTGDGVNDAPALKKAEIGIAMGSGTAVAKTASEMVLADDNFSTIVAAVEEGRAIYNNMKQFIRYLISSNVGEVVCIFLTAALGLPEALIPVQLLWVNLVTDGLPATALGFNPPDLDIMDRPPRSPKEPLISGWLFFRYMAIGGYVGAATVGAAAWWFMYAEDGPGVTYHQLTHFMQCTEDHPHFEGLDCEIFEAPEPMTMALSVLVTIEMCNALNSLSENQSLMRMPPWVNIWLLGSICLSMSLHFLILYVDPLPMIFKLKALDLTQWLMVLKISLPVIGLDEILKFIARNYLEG

[3] = test system: INS-1E beta cells; assay: MTT viability assay in INS-1E beta cells; assay type: cell-based; settings: for IC50: MTT, read-out: IC50, INS-1E cell viability; for PAL INS-1E Viability: in the presence of PAL; for Effect on INS-1E viability in the presence of MGX: 2.5 mM MGX; for Concentrations protecting against MGX-induced beta cell viability decrease: MGX 2.5 mM
Procedure: The INS-1E insulinoma pancreatic beta cell line (kindly provided by Prof. Claes Wollheim, University of Geneva) was cultured in RPMI 1640 (11 mM glucose, Sigma, St. Louis, MO, USA). The RPMI 1640 was supplemented with 100 U/mL penicillin, 100 μg/mL streptomycin, 2 mM L-glutamine, 1 mM Na pyruvate, 55 μM 2-mercaptoethanol, 10 mM HEPES, 1% nonessential amino acids, and 10% fetal bovine serum (pH 7.0–7.4). Cells were cultivated in a humidified incubator containing 5% CO2 at 37 °C. All experiments were conducted using cells from passages 40 to 70. […] Subsequent measurements were then performed using a cytotoxicity MTT assay and an insulin release assay.
The MTT (Sigma, St. Louis, MO, USA) reduction assay was used as an indicator of cell damage and was conducted following a standard protocol. INS-1E cells (5 × 10^4 cells per well) were seeded into 96-microwell plates. The cells were preincubated for different periods with or without various concentrations of individual compounds for 24 h (5% CO2 at 37 °C). MTT was introduced to achieve a final concentration of 0.5 mg/mL in an RPMI 1640 medium. Following a 4 h incubation, the MTT medium was removed. The addition of DMSO (100 µL) was added and left to stand for 15 min to solubilize the formazan formed. The absorbance was recorded at 570 nm using a microplate reader (Infinite M200, Tecan, Switzerland).

[4] = test system: INS-1E beta cells; assay: Insulin release from INS-1E beta cells (RIA); assay type: cell-based; settings: for Insulin Secretion Non-Stimulated / Insulin release from non-stimulated cells: 3 mM glucose; for Insulin Secretion Stimulated / Insulin release from Glu-stimulated cells: 16.7 mM glucose; for Insulin release from non-stimulated cells / Insulin release from Glu-stimulated cells: 50 µM, except CUR and THCU 10 µM, 24 h
Procedure: The INS-1E insulinoma pancreatic beta cell line (kindly provided by Prof. Claes Wollheim, University of Geneva) was cultured in RPMI 1640 (11 mM glucose, Sigma, St. Louis, MO, USA). The RPMI 1640 was supplemented with 100 U/mL penicillin, 100 μg/mL streptomycin, 2 mM L-glutamine, 1 mM Na pyruvate, 55 μM 2-mercaptoethanol, 10 mM HEPES, 1% nonessential amino acids, and 10% fetal bovine serum (pH 7.0–7.4). Cells were cultivated in a humidified incubator containing 5% CO2 at 37 °C. All experiments were conducted using cells from passages 40 to 70. The cells were pre-treated with various concentrations of individual compounds (5–200 μM) for 24 h with or without MGX (2.5 mM) and PAL (0.4 mM). Subsequent measurements were then performed using a cytotoxicity MTT assay and an insulin release assay.
Insulin release in response to glucose was measured in INS-1E beta cells ([…]). Briefly, after 24 h preincubation with individual compounds, beta cells were washed with a glucose-free KRBH buffer. Subsequently, cells were incubated at 37 °C for 30 min in a glucose-free KRBH buffer, followed by another 30 min incubation at 37 °C in a KRBH buffer containing either 3 mM glucose (non-stimulating concentration) or 16.7 mM glucose (insulin-stimulating concentration). The supernatants were then collected and analyzed using an RIA kit (Mercodia, Uppsala, Sweden) for insulin release, with rat insulin as the standard.

[5] = SR vesicles, no stressor, read-out: EC50, SERCA1a activation

- Effect on SERCA1a activity ([2]; 5–200 μM): increase SERCA1a activity
Compound: Oc1cc(O)c2cc(O)c(-c3ccc(O)c(O)c3)[o+]c2c1 [CYA, Cyanidin chloride]

- SERCA1a Activity ([2]; control conditions): -
- PAL SERCA1a Activity [2]: -
Compound: O=c1c(O)c(-c2cc(O)c(O)c(O)c2)oc2cc(O)cc(O)c12 [MYR, Myricetin]
- Effect on INS-1E viability in the presence of PAL ([3]; 0.4 mM PAL, 5–200 μM): highest degree of protection
- INS-1E viability restored, % of the control cell value ([3]; 0.4 mM PAL, 10 and 50 µM): approximately 80%

- Effect on SERCA1a activity ([2]; 5–200 μM): does not
Compound: CCCCC/C=C/C(=O)CCc1ccc(O)c(OC)c1 [SHO, [6]-Shogaol]
- Effect on SERCA1a activity in the presence of PAL ([2]; 5–200 μM): additional decrease in SERCA1a activity; also recorded: no preventive effect
- Effect on SERCA1a activity in the presence of MGX ([2]; 5–200 μM): further decreased SERCA1a activity; also recorded: no preventive effect
- Insulin Secretion Non-Stimulated [4]: -
- Insulin Secretion Stimulated [4]: -

- Effect on SERCA1a activity in the presence of PAL ([2]; 5–200 μM): protective effect
- Effect on SERCA1a activity ([2]; 5–200 μM): increase SERCA1a activity
- EC50 [2, 5]: 36.9 µM
- Concentration from which the SERCA1a activating effect starts [2]: ≥ 30 µM
Compound: CCCCC[C@H](O)CC(=O)CCc1ccc(O)c(OC)c1 [GIN, [6]-Gingerol]
- Effect on SERCA1a activity in the presence of PAL ([2]; 50 and 100 μM): protected against the decrease in SERCA1 activity
- Effect on SERCA1a activity in the presence of MGX ([2]; 5–200 μM): potent concentration-dependent protective effect
- Effect on SERCA1a activity in the presence of MGX ([2]; 100–200 μM): protected against the decrease in SERCA1 activity
- Insulin release from non-stimulated cells [4]: did not induce an increase
- Insulin release from Glu-stimulated cells [4]: slight increase
- Insulin Secretion Non-Stimulated [4]: -

- EC50 ([2]; in the presence of MGX (3 mM), read-out: EC50, protection of SERCA1 activity against MGX): 112 µM
Compound: Oc1ccc(/C=C/c2cc(O)cc(O)c2)cc1 [RES, Resveratrol]
- Effect on SERCA1a activity in the presence of MGX ([2]; 5–200 μM): potent concentration-dependent protective effect
- Effect on INS-1E viability in the presence of PAL ([3]; 0.4 mM PAL, 5–200 μM): did not prevent the decrease
- Effect on INS-1E viability in the presence of MGX ([3]; 5–200 μM, 24 h): no effect; also recorded: did not prevent the decrease
- MGX INS-1E Viability ([3]; in the presence of MGX): -
- PAL INS-1E Viability [3]: -
- Insulin Secretion Non-Stimulated [4]: -
- Insulin Secretion Stimulated [4]: -

- Increase in SERCA1a activity ([2]; 50 μM): approximately 150%
- Effect on SERCA1a activity in the presence of PAL ([2]; 5–200 μM): most profound protective effect
- Effect on SERCA1a activity ([2]; 5–200 μM): increase SERCA1a activity
- EC50 [2, 5]: 33.2 µM
- Concentration from which the SERCA1a activating effect starts [2]: ≥ 30 µM
Compound: O=c1oc2c(O)c(O)cc3c(=O)oc4c(O)c(O)cc1c4c23 [EA, Ellagic acid]
- Effect on SERCA1a activity in the presence of PAL ([2]; 50 µM): alleviated PAL-induced injury almost to control values
- Effect on SERCA1a activity in the presence of MGX ([2]; 5–200 μM): potent concentration-dependent protective effect
- Effect on INS-1E viability in the presence of PAL ([3]; 0.4 mM PAL, 5–200 μM): protection
- Insulin release from non-stimulated cells [4]: significant increase in insulin release
- Insulin release from Glu-stimulated cells [4]: significant increase in insulin release

Continued, compound first:

Compound: Cc1ccc2cccc(NC(=O)c3ccc(OC(C)C)cc3)c2n1 [CDN1163]
- Concentrations required for efficient SERCA activation [1]: 1 to 10 µM

Compound: CC(=O)C=O [MGX, methylglyoxal]
- IC50 ([2]; SR vesicles): 2980 µM
- IC50 [3]: 2540 µM

Compound: Oc1cc(O)cc(/C=C/c2ccc(O)cc2O)c1 [ORES, Oxyresveratrol]
- Effect on SERCA1a activity in the presence of MGX ([2]; 5–200 μM): further decreased SERCA1a activity
- PAL SERCA1a Activity [2]: -
- PAL INS-1E Viability [3]: -
- Insulin Secretion Non-Stimulated [4]: -

Compound: CCCCCCCCCCCCCCCC(=O)O [PAL, palmitate]
- IC50 ([2]; SR vesicles): 650 µM
- IC50 ([3]; INS-1E): 410 µM

Compound: COc1cc(CCC(=O)CC(=O)CCc2ccc(O)c(OC)c2)ccc1O [THCU, Tetrahydrocurcumin]
- MGX SERCA1a Activity ([2]; in the presence of MGX): -
- PAL SERCA1a Activity [2]: -
- Effect on INS-1E cell viability ([3]; 20 µM, 24 h): stimulating effect on cell viability
- Effect on INS-1E viability in the presence of MGX ([3]; 20 µM): protective effect
- Concentrations protecting against MGX-induced beta cell viability decrease [3]: < 20 µM
- Insulin release from non-stimulated cells [4]: significant increase in insulin release
- Insulin release from Glu-stimulated cells [4]: significant increase in insulin release

Compound: Curcumin
- Effect on SERCA1a activity in the presence of PAL ([2]; 5–200 μM): additional decrease in SERCA1a activity
- Effect on SERCA1a activity in the presence of MGX ([2]; 10 µM): prevented MGX-mediated decline
- Effect on SERCA1a activity in the presence of MGX ([2]; 20–50 µM): further decreased SERCA1a activity
- Effect on INS-1E viability in the presence of PAL ([3]; 0.4 mM PAL, 5–200 μM): protection
- Effect on INS-1E viability in the presence of MGX ([3]; 5 and 10 µM): protective effect
- Concentrations protecting against MGX-induced beta cell viability decrease [3]: < 20 µM
- Insulin release from non-stimulated cells [4]: significant increase in insulin release
- Insulin release from Glu-stimulated cells [4]: significant increase in insulin release
